Experimental data taken from patent US8959984B2, “Proteome-wide quantification of small molecule binding to cellular target proteins” (priority 2007, dated 2015).
Where two headings read alike, the source gives them in different places.

How the values were obtained:
RIPK2 = RIPK2 (Homo sapiens, UniProt O43353); test: binding to immobilized V16742 (IVA1/IVA2, HeLa lysate, MS)
JNK2 = JNK2 (Homo sapiens, UniProt P45984); test: as above
BRD4 = BRD4 (Homo sapiens, UniProt O60885); test: as above
JAK1 = JAK1 (Homo sapiens, UniProt P23458); test: as above
JAK1, sequence (P23458 whole entry): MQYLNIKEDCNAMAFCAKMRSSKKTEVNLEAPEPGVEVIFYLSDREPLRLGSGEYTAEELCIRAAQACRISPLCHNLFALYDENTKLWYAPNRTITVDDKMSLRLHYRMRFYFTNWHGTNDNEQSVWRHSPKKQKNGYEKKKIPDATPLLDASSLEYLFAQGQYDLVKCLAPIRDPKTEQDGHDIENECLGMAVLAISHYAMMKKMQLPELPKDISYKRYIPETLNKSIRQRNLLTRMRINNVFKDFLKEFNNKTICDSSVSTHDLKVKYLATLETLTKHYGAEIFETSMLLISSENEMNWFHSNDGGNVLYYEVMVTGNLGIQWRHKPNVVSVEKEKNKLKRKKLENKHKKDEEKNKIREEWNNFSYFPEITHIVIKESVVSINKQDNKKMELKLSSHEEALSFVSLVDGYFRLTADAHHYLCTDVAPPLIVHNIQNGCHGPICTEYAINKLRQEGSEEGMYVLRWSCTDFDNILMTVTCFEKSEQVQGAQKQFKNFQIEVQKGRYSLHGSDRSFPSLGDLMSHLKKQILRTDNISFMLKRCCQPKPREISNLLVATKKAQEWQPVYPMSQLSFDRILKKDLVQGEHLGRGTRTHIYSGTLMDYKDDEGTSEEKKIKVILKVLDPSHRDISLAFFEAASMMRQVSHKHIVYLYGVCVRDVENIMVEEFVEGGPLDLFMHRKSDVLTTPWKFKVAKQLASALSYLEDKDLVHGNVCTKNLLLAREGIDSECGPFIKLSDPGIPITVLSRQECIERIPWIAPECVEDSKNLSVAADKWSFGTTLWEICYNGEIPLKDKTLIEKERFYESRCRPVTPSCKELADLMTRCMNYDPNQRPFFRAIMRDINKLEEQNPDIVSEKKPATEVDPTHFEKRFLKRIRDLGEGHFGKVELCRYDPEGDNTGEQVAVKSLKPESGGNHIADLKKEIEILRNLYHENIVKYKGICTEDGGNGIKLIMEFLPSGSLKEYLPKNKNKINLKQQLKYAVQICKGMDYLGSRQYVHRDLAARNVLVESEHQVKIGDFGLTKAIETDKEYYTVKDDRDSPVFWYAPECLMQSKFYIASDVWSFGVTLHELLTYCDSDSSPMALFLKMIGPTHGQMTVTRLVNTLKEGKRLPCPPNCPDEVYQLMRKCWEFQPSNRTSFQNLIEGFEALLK

ERK2 = ERK2 (Homo sapiens, UniProt P28482); test: as above; details: for Percent bound at 1.87 μM 16742 conc / Percent bound at 8.74 μM 16742 conc / Percent bound at 52 μM 16742 conc / Kd: Erk2
ERK2, sequence (P28482 whole entry): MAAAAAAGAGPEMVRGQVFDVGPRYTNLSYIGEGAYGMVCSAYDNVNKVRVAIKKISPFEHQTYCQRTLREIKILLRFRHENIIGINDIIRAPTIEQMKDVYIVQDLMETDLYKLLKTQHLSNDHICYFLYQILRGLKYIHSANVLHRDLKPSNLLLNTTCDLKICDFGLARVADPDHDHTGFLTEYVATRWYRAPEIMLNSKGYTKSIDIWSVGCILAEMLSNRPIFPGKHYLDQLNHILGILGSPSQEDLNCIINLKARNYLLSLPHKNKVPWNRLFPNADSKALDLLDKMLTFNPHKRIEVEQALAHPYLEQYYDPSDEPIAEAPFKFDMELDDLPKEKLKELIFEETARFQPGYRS

MAP3K5 = target: T1, MAP3K5 (Homo sapiens, UniProt Q99683); test: as above
T1 construct: endogenous in cells; host or cells: HeLa S3
T1 sequence (Q99683 1-1374): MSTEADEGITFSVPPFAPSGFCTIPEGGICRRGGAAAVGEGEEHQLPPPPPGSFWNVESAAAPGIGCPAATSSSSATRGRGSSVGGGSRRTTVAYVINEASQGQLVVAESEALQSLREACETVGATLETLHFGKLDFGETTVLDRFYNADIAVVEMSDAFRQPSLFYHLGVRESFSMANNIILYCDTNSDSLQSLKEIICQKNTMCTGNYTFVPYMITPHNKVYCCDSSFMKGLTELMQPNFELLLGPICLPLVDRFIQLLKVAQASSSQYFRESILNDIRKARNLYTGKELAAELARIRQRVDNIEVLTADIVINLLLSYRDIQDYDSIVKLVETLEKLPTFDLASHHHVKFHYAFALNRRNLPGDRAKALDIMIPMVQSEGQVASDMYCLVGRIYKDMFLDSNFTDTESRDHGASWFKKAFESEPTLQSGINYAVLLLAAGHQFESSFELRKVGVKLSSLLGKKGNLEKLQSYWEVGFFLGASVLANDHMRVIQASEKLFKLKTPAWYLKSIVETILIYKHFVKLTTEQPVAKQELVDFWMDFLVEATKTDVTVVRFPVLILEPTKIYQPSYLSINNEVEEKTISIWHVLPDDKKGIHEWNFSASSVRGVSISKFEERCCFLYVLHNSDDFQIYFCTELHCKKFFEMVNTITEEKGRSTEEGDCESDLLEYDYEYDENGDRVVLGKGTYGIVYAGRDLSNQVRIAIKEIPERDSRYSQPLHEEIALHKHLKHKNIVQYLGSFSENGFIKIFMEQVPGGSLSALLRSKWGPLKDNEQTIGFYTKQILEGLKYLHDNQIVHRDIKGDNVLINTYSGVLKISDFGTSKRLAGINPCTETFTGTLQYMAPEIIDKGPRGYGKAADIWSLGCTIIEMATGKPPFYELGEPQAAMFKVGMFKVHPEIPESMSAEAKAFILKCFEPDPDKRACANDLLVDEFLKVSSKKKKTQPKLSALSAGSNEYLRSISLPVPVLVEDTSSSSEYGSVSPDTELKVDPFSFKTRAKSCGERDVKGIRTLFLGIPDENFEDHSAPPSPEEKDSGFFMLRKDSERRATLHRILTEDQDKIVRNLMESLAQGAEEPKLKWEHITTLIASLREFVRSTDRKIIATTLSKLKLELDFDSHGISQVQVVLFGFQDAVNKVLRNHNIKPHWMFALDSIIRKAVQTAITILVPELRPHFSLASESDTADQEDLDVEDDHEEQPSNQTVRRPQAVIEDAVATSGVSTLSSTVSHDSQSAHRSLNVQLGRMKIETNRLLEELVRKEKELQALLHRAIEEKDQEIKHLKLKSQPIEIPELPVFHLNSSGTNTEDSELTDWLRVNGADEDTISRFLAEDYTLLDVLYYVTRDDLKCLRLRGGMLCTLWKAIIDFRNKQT

ADK (IPI00290279) = target: T2, ADK (IPI00290279) (Homo sapiens, UniProt P55263); test: binding to VI16742 beads (HeLa lysate, SILAC MS)
T2 construct: endogenous in cells; host or cells: HeLa S3 cell lysate
T2 sequence (P55263 whole entry): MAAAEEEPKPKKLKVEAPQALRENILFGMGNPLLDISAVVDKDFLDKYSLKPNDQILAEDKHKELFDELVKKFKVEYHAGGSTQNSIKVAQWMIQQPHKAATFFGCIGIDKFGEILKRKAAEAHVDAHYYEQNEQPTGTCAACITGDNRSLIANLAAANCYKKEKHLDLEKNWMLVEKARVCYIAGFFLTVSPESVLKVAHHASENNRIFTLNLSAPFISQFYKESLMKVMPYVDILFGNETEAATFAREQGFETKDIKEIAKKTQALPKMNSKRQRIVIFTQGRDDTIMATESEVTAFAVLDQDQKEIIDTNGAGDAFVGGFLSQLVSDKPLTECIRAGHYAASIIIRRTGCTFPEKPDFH

EphA2 = EphA2 (Homo sapiens, UniProt P29317); test: binding to immobilized V16742 (IVA1/IVA2, HeLa lysate, MS)
EphA2, sequence (P29317 24-976): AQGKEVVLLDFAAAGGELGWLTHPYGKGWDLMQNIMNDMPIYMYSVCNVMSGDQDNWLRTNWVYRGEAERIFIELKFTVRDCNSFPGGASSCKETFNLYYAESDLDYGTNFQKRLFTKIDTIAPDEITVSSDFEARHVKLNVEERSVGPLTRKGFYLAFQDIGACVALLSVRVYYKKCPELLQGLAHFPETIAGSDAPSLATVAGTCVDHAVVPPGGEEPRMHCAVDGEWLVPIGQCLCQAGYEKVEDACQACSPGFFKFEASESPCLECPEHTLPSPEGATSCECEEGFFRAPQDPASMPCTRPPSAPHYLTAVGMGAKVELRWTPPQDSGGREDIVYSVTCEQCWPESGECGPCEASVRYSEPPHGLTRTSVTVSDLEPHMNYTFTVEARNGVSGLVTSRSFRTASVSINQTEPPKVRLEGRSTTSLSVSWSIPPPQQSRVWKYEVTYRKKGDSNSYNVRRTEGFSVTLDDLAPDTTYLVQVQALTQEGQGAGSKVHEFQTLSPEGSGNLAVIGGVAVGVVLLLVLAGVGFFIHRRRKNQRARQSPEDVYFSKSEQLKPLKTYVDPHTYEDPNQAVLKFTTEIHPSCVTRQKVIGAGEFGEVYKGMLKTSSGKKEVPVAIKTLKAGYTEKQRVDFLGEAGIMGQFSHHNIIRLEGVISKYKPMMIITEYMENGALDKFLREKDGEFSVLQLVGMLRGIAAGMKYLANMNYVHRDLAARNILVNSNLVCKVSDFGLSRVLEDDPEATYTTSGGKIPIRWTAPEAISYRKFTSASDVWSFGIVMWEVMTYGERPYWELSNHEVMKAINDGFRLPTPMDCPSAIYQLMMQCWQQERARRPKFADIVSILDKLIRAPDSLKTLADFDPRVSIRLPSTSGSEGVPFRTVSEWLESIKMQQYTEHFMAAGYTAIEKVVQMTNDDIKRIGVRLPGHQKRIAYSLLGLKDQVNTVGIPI
Protocol: (§1) Using the three populations of SILAC-labelled cells and the three different inhibitor resins, two parallel experiments termed as IVA1 (In Vitro Association, Setting 1) and IVA2 (In Vitro Association, Setting 2) were performed. […] In IVA2, SILAC encoded HeLa cells lysates were subjected to two parallel rounds of consecutive affinity purification at the highest ligand density where the supernatant left behind after the first IVA was used for the second round of IVA. An additional incubation of Hela cell lysate with control beads devoid of immobilized inhibitor was also performed to distinguish background binders.
(§2) A common IPI identifier template was assigned to peptides based on the MASCOT html-output file for the IVA2 setting in first experiment. The proteins hits identified based on unique peptides were filtered for mass error and MASCOT score. Eventually, the hits identified in both first and second IVA2 experiments were quantified for IVA2 setting of first experiment by MSQuant. […] A next round of sorting was done to filter out protein hits that are less than 50% enriched in the IVA second round compared to IVA first round. This is because at enrichment below 50%, there could be significant errors in deducing kd values for the corresponding targets. […] The same set of targets was also quantified in IVA2 and IVA1 settings of an independent second experiment.

Erk1 = Erk1 (Homo sapiens, UniProt P27361); test: as above
Erk1, sequence (P27361 whole entry): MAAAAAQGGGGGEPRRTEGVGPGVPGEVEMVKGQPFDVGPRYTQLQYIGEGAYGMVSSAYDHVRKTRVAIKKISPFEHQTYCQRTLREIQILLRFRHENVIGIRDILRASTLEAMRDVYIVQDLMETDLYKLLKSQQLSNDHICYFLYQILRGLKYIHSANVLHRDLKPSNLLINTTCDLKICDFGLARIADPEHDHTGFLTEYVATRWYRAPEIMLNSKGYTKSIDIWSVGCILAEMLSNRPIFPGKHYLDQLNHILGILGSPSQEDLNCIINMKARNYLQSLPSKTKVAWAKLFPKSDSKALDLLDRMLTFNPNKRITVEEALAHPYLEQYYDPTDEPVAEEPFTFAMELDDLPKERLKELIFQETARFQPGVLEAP
Protocol: as §1, §2

[1] = target: p38a (MAPK14, IPI00221141) (Homo sapiens, UniProt Q16539); test: gefitinib competition against AX14596 beads (HeLa lysate, SILAC MS); assay type: binding
p38a (MAPK14, IPI00221141), sequence (Q16539 1-360 isoform Q16539-2): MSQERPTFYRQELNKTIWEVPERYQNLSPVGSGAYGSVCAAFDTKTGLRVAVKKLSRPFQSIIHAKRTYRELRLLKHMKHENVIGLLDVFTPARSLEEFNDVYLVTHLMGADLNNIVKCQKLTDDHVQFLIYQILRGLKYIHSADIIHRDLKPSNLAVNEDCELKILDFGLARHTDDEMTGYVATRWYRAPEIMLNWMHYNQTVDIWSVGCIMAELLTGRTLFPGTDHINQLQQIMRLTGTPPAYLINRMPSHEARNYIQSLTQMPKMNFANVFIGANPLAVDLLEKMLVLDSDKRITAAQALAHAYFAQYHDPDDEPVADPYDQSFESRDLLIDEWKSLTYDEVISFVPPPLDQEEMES

[2] = immobilized V16742, read-out: Kd

JNK2, sequence (P45984 whole entry): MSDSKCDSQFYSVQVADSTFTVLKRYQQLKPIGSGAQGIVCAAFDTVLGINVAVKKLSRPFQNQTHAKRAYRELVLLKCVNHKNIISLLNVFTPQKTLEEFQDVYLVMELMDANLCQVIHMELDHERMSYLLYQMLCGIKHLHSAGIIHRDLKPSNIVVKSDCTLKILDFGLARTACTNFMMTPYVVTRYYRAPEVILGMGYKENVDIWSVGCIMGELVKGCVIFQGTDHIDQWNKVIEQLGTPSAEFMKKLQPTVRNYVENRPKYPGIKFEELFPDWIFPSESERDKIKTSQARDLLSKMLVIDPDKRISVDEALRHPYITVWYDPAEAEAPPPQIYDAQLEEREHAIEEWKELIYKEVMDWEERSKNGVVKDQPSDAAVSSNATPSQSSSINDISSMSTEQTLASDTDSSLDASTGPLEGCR
RIPK2, sequence (O43353 whole entry): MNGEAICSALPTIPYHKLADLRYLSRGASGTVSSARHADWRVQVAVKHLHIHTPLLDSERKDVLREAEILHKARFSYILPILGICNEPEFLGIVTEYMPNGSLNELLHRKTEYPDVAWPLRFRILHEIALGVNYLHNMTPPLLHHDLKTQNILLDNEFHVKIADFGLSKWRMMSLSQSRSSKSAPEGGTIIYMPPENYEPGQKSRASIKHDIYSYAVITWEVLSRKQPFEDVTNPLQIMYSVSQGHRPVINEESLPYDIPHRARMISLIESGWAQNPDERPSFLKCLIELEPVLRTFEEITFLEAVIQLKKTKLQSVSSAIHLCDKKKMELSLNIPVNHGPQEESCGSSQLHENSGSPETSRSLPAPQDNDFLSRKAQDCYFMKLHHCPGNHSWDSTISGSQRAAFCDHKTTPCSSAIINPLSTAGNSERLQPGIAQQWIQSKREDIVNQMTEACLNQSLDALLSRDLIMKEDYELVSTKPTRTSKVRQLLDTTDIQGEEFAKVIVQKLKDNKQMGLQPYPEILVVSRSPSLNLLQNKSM

CC(C)n1c(=O)ccc2cnc(Nc3ccc(OCCN)cc3)nc21 [V16742]
affinity class of target for V16742 (RIPK2): Moderate affinity target
affinity class of target for V16742 (JNK2): High affinity target
Kd (BRD4; [2]): 32 µM
Kd (JAK1; [2]): 11.1 µM
affinity class of target for V16742 (ERK2; ERK2): Low affinity target
Percent bound at various 16742 conc (MAP3K5; Experiment 1, 1.87 μM 16742): 7.42%
Percent bound at various 16742 conc (MAP3K5; Experiment 1, 8.74 μM 16742): 10.05%
Percent bound at various 16742 conc (MAP3K5; Experiment 1, 52 μM 16742): 56.90%
Kd (MAP3K5; Experiment 1, read-out: Kd): 44.5 µM
Percent bound at various 16742 conc (MAP3K5; Experiment 2, 1.87 μM 16742): 1.27%
Percent bound at various 16742 conc (MAP3K5; Experiment 2, 8.74 μM 16742): 1.00%
Percent bound at various 16742 conc (MAP3K5; Experiment 2, 52 μM 16742): 17.64%
Kd (MAP3K5; Experiment 2, read-out: Kd): 252 µM
Kd (MAP3K5; average of two experiments, read-out: Kd Avg): 148 µM
r (5 h/2.5 h INC. TIME) (ADK (IPI00290279); 5 h vs 2.5 h incubation time): 1.63
rAVERAGE (CTRL/1 INC) (ADK (IPI00290279); control beads vs first incubation): 0.05
Ki (ADK (IPI00290279); immobilized VI16742): 94.2 µM
rAVERAGE (2 INC/1 INC) (ADK (IPI00290279); second vs first incubation): 0.64
Kd (EphA2): 58.1 µM
Percent bound at various 16742 conc (EphA2; EphA2, Experiment 1, 1.87 μM 16742): 3.91%
Percent bound at various 16742 conc (EphA2; EphA2, Experiment 1, 8.74 μM 16742): 13.88%
Percent bound at various 16742 conc (EphA2; EphA2, Experiment 1, 52 μM 16742): 54.66%
Percent bound at various 16742 conc (EphA2; EphA2, Experiment 2, 1.87 μM 16742): 2.12%
Percent bound at various 16742 conc (EphA2; EphA2, Experiment 2, 8.74 μM 16742): 7.66%
Percent bound at various 16742 conc (EphA2; EphA2, Experiment 2, 52 μM 16742): 43.73%
Kd (EphA2; Kd, EphA2, Experiment 1): 45.3 µM
Kd (EphA2; Kd, EphA2, Experiment 2): 70.8 µM
Kd (Erk1): 57.8 µM
Percent bound at various 16742 conc (Erk1; Erk1, Experiment 1, 1.87 μM 16742): 1.06%
Percent bound at various 16742 conc (Erk1; Erk1, Experiment 1, 8.74 μM 16742): 2.41%
Percent bound at various 16742 conc (Erk1; Erk1, Experiment 1, 52 μM 16742): 52.52%
Percent bound at various 16742 conc (Erk1; Erk1, Experiment 2, 1.87 μM 16742): 0.91%
Percent bound at various 16742 conc (Erk1; Erk1, Experiment 2, 8.74 μM 16742): 2.38%
Percent bound at various 16742 conc (Erk1; Erk1, Experiment 2, 52 μM 16742): 45.83%
Kd (Erk1; Kd Avg, Erk1, average of two experiments): 64.4 µM
Kd (Erk1; Kd, Erk1, Experiment 2): 71.1 µM
Kd (Erk1; Kd, Erk1, immobilized V16742): 64.4 µM

COc1cc2ncnc(Nc3ccc(F)c(Cl)c3)c2cc1OCCCN1CCOCC1 [gefitinib]
rAVERAGE (10 nM/0 nM Gef.) [1]: 0.88
rAVERAGE (100 nM/0 nM Gef.) [1]: 0.97
rAVERAGE (1000 nM/0 nM Gef.) [1]: 0.97
rAVERAGE (10000 nM/0 nM Gef.) [1]: 0.64

CC(C)n1c(=O)ccc2cnc(Nc3ccc(OCCN)cc3)nc21 [compound 16742]
Percent bound at 1.87 μM 16742 conc (RIPK2; EXPERIMENT 1): 3.74%
Percent bound at 8.74 μM 16742 conc (RIPK2; EXPERIMENT 1): 42.39%
Percent bound at 52 μM 16742 conc (RIPK2; EXPERIMENT 1): 91.89%
Kd (RIPK2; EXPERIMENT 1, read-out: Kd): 11.4 µM
Percent bound at 1.87 μM 16742 conc (RIPK2; EXPERIMENT 2): 5.20%
Percent bound at 8.74 μM 16742 conc (RIPK2; EXPERIMENT 2): 38.79%
Percent bound at 52 μM 16742 conc (RIPK2; EXPERIMENT 2): 90.30%
Kd (RIPK2; EXPERIMENT 2, read-out: Kd): 12.4 µM
Kd (RIPK2; read-out: Kd Avg): 11.9 µM
Percent bound at 1.87 μM 16742 conc (JNK2; EXPERIMENT 1): 68.10%
Percent bound at 8.74 μM 16742 conc (JNK2; EXPERIMENT 1): 89.45%
Percent bound at 52 μM 16742 conc (JNK2; EXPERIMENT 1): 92.48%
Kd (JNK2; EXPERIMENT 1, read-out: Kd): 0.91 µM
Percent bound at 1.87 μM 16742 conc (JNK2; EXPERIMENT 2): 57.18%
Percent bound at 8.74 μM 16742 conc (JNK2; EXPERIMENT 2): 75.70%
Percent bound at 52 μM 16742 conc (JNK2; EXPERIMENT 2): 94.94%
Kd (JNK2; EXPERIMENT 2, read-out: Kd): 1.69 µM
Kd (JNK2; read-out: Kd Avg): 1.3 µM
Percent bound at 1.87 μM 16742 conc (BRD4; EXPERIMENT 1): 0.33%
Percent bound at 8.74 μM 16742 conc (BRD4; EXPERIMENT 1): 6.55%
Percent bound at 52 μM 16742 conc (BRD4; EXPERIMENT 1): 73.70%
Percent bound at 52 μM 16742 conc (BRD4; EXPERIMENT 2): 61.49%
Kd (BRD4; read-out: Kd Avg): 32 µM
Percent bound at 1.87 μM 16742 conc (JAK1; EXPERIMENT 1): 16.10%
Percent bound at 8.74 μM 16742 conc (JAK1; EXPERIMENT 1): 75.89%
Percent bound at 52 μM 16742 conc (JAK1; EXPERIMENT 1): 90.34%
Kd (JAK1; EXPERIMENT 1, read-out: Kd): 4.76 µM
Percent bound at 1.87 μM 16742 conc (JAK1; EXPERIMENT 2): 8.59%
Percent bound at 8.74 μM 16742 conc (JAK1; EXPERIMENT 2): 30.74%
Percent bound at 52 μM 16742 conc (JAK1; EXPERIMENT 2): 78.69%
Kd (JAK1; EXPERIMENT 2, read-out: Kd): 17.4 µM
Kd (JAK1; read-out: Kd Avg): 11.1 µM
Percent bound at 1.87 μM 16742 conc (ERK2; EXPERIMENT 1): 1.41%
Percent bound at 8.74 μM 16742 conc (ERK2; EXPERIMENT 1): 5.40%
Percent bound at 52 μM 16742 conc (ERK2; EXPERIMENT 1): 70.05%
Kd (ERK2; EXPERIMENT 1, read-out: Kd): 35.1 µM
Percent bound at 1.87 μM 16742 conc (ERK2; EXPERIMENT 2): 2.43%
Percent bound at 8.74 μM 16742 conc (ERK2; EXPERIMENT 2): 5.90%
Percent bound at 52 μM 16742 conc (ERK2; EXPERIMENT 2): 65.58%
Kd (ERK2; EXPERIMENT 2, read-out: Kd): 38.5 µM
Kd (ERK2; read-out: Kd Avg): 36.8 µM
